Patent publication US20260071239A1, “COMPOSITIONS AND METHODS FOR IMPROVED CELL CULTURE EFFICIENCY” (Amyris, Inc., priority 2022, published 2026)
Converted amounts (≈) assume the structure as drawn.

Test system: host cells
Assay: Inhibition of host cells by myrcene during fermentation
Type: cell-based
Details: host cells in fermentation; read-out: IC50 (inhibitory to host cells)

Structure (SMILES): C=CC(=C)CCC=C(C)C [Myrcene, myrcene]
- IC50: 50 to 100 µg/mL (≈ 367 to 734 µM)
